Where “and” joins values, the source holds several entries; their conditions need not be identical. Equal values may be shown once.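 Five compound concentrations were applied to cells in 96-well plates for 48 hours; endpoints were derived by simple linear interpolation of the resulting dose-response curve. GI50: concentration for 50% inhibition of growth. Definition used: TGI = concentration required for complete inhibition of growth.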 Where a SMILES comes first, the peptide text is derived from it. [ ]: non-standard residue; d: D form. Ac5c = NC1(C(=O)O)CCCC1
test system: UACC-257 melanoma; assay: NCI anticancer screen, dose series, 48 h

SMILES	GI50	TGI
COc1cc(/C=C/C(=O)CC(=O)/C=C/c2cc(OC)c(OC)c(OC)c2)cc(OC)c1OC	3.23 µM	31.1 µM
CO[C@@H]1/C=C\C=C(/C)C(=O)NC2=CC(=O)C(NCCN(C)C)=C(C[C@@H](C)C[C@@H](OC)[C@@H](O)[C@H](C)/C=C(\C)[C@H]1OC(N)=O)C2=O	0.0196 µM	2.06 µM and 1.27 µM
COc1ccc(CN(C)c2ccc(CO)c(Cl)c2)cc1	0.318 µM	1.22 µM
O=C1Nc2ccc(C(=O)c3ccco3)cc2/C1=C/c1cc(Cl)c(O)c(Cl)c1	4.79 µM	17.9 µM
O=c1ccn(C2OC(CO)C(O)C2F)c(=O)[nH]1 (stereo not given)	> 1000 µM	> 1000 µM
CC(=O)[O-].CC(=O)[O-].[Pt+2].c1cscn1.c1cscn1	31.9 µM	85.3 µM
Cn1c([N+](=O)[O-])cnc1/C=C1\Oc2ccccc2C1=O	0.682 µM	2.84 µM
COc1cc(OC)cc(C2CC(=O)Nc3c2c(C)nn3-c2nc3ccccc3[nH]2)c1 (stereo not given)	2.64 µM	7.32 µM
Cc1c[nH]c2c(O)cc3c(c12)[C@H](CCl)CN3C(=O)c1cc2cc(NC(=O)Nc3ccc4[nH]c(C(=O)N5C[C@@H](CCl)c6c5cc(O)c5[nH]cc(C)c65)cc4c3)ccc2[nH]1	1.27 ng/mL	42.4 µM and 0.00318 µg/mL
CCN(CC)CCCC(C)Nc1c2ccc(Cl)cc2nc2ccc(OC)cc12 (stereo not given)		3.43 µM and 3.38 µM
COc1ccc([N+](=O)[O-])c2c(NCCCN(C)C)c3ccccc3nc12		0.531 µM
CCN1CCN(C(=O)[C@]23CC[C@@H](C)[C@H](C)[C@@H]2C2=CC[C@@H]4[C@@]5(C)C/C(=C/c6ccncc6)C(=O)C(C)(C)[C@@H]5CC[C@@]4(C)[C@]2(C)CC3)CC1	1.84 µM	3.92 µM
NC1(C(=O)NC2(C(=O)O)CCCC2)CCCC1 (H-[Ac5c]-[Ac5c]-OH)		> 100 µM
CCOC(=O)C(Cc1c[nH]c2ccc(N)cc12)(NC(C)=O)C(=O)OCC	> 1000 µM	> 1000 µM
CN1CCN(CCCN)CC1		> 100 µM
CC(=O)Nc1ccc(C(=O)NN2C(=O)C(Cl)C2c2ccc(Cl)cc2)cc1 (stereo not given)		> 100 µM
Nc1ccc(N(S(=O)(=O)c2ccccc2)S(=O)(=O)c2ccccc2)c(Cl)c1		> 100 µM
CC(O)c1cccc(NCc2c3ccccc3c(=O)n3c2oc2ccccc23)c1 (stereo not given)	8.24 µM	47.7 µM
O=c1c2c(nc3n1CCS3)[nH]c1ccccc12	> 100 µM	> 100 µM
CSc1nc(C)c2c(n1)SCC2		> 10 µM
CC1=C2[C@@H](CC1)[C@]1(C)O[C@@](C3CCCCC3)(C[C@H]1OC(=O)CO)[C@H]2OC(=O)/C=C/c1ccccc1	12.3 µM	26 µM
O=C(O[C@H]1CN[C@H](C#Cc2cc3ncnc(Nc4ccc5c(ccn5Cc5cc(F)ccc5F)c4)c3s2)C1)N1CCOCC1	4.2 µM	10.6 µM
O=c1c(Oc2ccc(F)cc2F)cc2cnc(NC3CCOCC3)nc2n1C1CCS(=O)(=O)CC1	> 25 µM	> 25 µM
C=CCC(N[C@H](CO)c1ccccc1)c1ccc2ccccc2n1 (stereo not given in full)	> 100 µM	> 100 µM

test system: T-47D breast; assay: NCI anticancer screen, dose series, 48 h

SMILES	GI50	TGI
COc1cc(/C=C/C(=O)CC(=O)/C=C/c2cc(OC)c(OC)c(OC)c2)cc(OC)c1OC	3.98 µM	84.5 µM
COc1cc2c(cc1OCCCOc1cc3c(cc1OC)C(=O)N1C[C@H](F)C[C@H]1C=N3)N=C[C@@H]1C[C@@H](F)CN1C2=O	15.9 µM	58 µM
CO[C@@H]1/C=C\C=C(/C)C(=O)NC2=CC(=O)C(NCCN(C)C)=C(C[C@@H](C)C[C@@H](OC)[C@@H](O)[C@H](C)/C=C(\C)[C@H]1OC(N)=O)C2=O	0.03 µM and 0.0574 µM	3.31 µM and 4.48 µM
COc1ccc(CN(C)c2ccc(CO)c(Cl)c2)cc1	0.513 µM	3.82 µM
O=C1Nc2ccc(C(=O)c3ccco3)cc2/C1=C/c1cc(Cl)c(O)c(Cl)c1	7.17 µM	> 25 µM
O=c1ccn(C2OC(CO)C(O)C2F)c(=O)[nH]1 (stereo not given)	> 1000 µM	> 1000 µM
CC(=O)[O-].CC(=O)[O-].[Pt+2].c1cscn1.c1cscn1	62 µM	> 100 µM
Cn1c([N+](=O)[O-])cnc1/C=C1\Oc2ccccc2C1=O	12.7 µM	68.8 µM
COc1cc(OC)cc(C2CC(=O)Nc3c2c(C)nn3-c2nc3ccccc3[nH]2)c1 (stereo not given)	3.5 µM	> 100 µM
Cc1c[nH]c2c(O)cc3c(c12)[C@H](CCl)CN3C(=O)c1cc2cc(NC(=O)Nc3ccc4[nH]c(C(=O)N5C[C@@H](CCl)c6c5cc(O)c5[nH]cc(C)c65)cc4c3)ccc2[nH]1	0.00671 µM	0.0911 µM and 0.0461 µM
CCN(CC)CCCC(C)Nc1c2ccc(Cl)cc2nc2ccc(OC)cc12 (stereo not given)	2.59 µM	7.01 µM and 5.68 µM
COc1ccc([N+](=O)[O-])c2c(NCCCN(C)C)c3ccccc3nc12		3.95 µM
CCN1CCN(C(=O)[C@]23CC[C@@H](C)[C@H](C)[C@@H]2C2=CC[C@@H]4[C@@]5(C)C/C(=C/c6ccncc6)C(=O)C(C)(C)[C@@H]5CC[C@@]4(C)[C@]2(C)CC3)CC1	1.56 µM	3.49 µM
Cc1cc(C)c([O-])c(CN(C)CCN(C)Cc2cc(C)cc(C)c2[O-])c1.O=C([O-])c1cccc(C(=O)[O-])n1.[Ti+4]	1.28 µM	> 100 µM
NC1(C(=O)NC2(C(=O)O)CCCC2)CCCC1 (H-[Ac5c]-[Ac5c]-OH)		> 100 µM
CCOC(=O)C(Cc1c[nH]c2ccc(N)cc12)(NC(C)=O)C(=O)OCC	728 µM	> 1000 µM
CN1CCN(CCCN)CC1		> 100 µM
CC(=O)Nc1ccc(C(=O)NN2C(=O)C(Cl)C2c2ccc(Cl)cc2)cc1 (stereo not given)		> 100 µM
Nc1ccc(N(S(=O)(=O)c2ccccc2)S(=O)(=O)c2ccccc2)c(Cl)c1		> 100 µM
CC(O)c1cccc(NCc2c3ccccc3c(=O)n3c2oc2ccccc23)c1 (stereo not given)	14.4 µM	64.6 µM
O=c1c2c(nc3n1CCS3)[nH]c1ccccc12	> 100 µM	> 100 µM
CSc1nc(C)c2c(n1)SCC2		> 10 µM
CC1=C2[C@@H](CC1)[C@]1(C)O[C@@](C3CCCCC3)(C[C@H]1OC(=O)CO)[C@H]2OC(=O)/C=C/c1ccccc1	4.69 µM	17.5 µM
O=C(O[C@H]1CN[C@H](C#Cc2cc3ncnc(Nc4ccc5c(ccn5Cc5cc(F)ccc5F)c4)c3s2)C1)N1CCOCC1	0.206 µM	7.1 µM
O=c1c(Oc2ccc(F)cc2F)cc2cnc(NC3CCOCC3)nc2n1C1CCS(=O)(=O)CC1	> 25 µM	> 25 µM
C=CCC(N[C@H](CO)c1ccccc1)c1ccc2ccccc2n1 (stereo not given in full)	> 100 µM	> 100 µM
COC(=O)c1cc2c(cc1Cl)SC(N(N(C)C)S(=O)(=O)c1ccc(Br)s1)=NS2(=O)=O	12.8 µM	43.1 µM

test system: NCI/ADR-RES ovarian; assay: NCI anticancer screen, dose series, 48 h

SMILES	GI50	TGI
COc1cc(/C=C/C(=O)CC(=O)/C=C/c2cc(OC)c(OC)c(OC)c2)cc(OC)c1OC	4.18 µM	> 100 µM
COc1cc2c(cc1OCCCOc1cc3c(cc1OC)C(=O)N1C[C@H](F)C[C@H]1C=N3)N=C[C@@H]1C[C@@H](F)CN1C2=O	11.9 µM	26 µM
CO[C@@H]1/C=C\C=C(/C)C(=O)NC2=CC(=O)C(NCCN(C)C)=C(C[C@@H](C)C[C@@H](OC)[C@@H](O)[C@H](C)/C=C(\C)[C@H]1OC(N)=O)C2=O	5.55 µM and 17.7 µM	29.6 µM and 62.7 µM
COc1ccc(CN(C)c2ccc(CO)c(Cl)c2)cc1	15.9 µM	55.3 µM
O=C1Nc2ccc(C(=O)c3ccco3)cc2/C1=C/c1cc(Cl)c(O)c(Cl)c1	9.61 µM	> 25 µM
O=c1ccn(C2OC(CO)C(O)C2F)c(=O)[nH]1 (stereo not given)	> 1000 µM	> 1000 µM
CC(=O)[O-].CC(=O)[O-].[Pt+2].c1cscn1.c1cscn1	> 100 µM	> 100 µM
Cn1c([N+](=O)[O-])cnc1/C=C1\Oc2ccccc2C1=O	0.392 µM	4.45 µM
COc1cc(OC)cc(C2CC(=O)Nc3c2c(C)nn3-c2nc3ccccc3[nH]2)c1 (stereo not given)	4.47 µM	> 100 µM
CCN(CC)CCCC(C)Nc1c2ccc(Cl)cc2nc2ccc(OC)cc12 (stereo not given)	2.26 µM	9.69 µM and 7.81 µM
COc1ccc([N+](=O)[O-])c2c(NCCCN(C)C)c3ccccc3nc12		23.5 µM

From PubChem BioAssay (NCI)
